System: primary mouse oligodendrocyte precursor cells
Assay: In vitro differentiation of primary mouse OPCs (MBP/O4 immunostaining, MBP western blot)
Assay type: cell-based
Conditions: for Relative MBP protein expression (ratio MBP to β-actin), western blot: treatment day 0, 2, 4, 6 days, compared to vehicle; for MBP protein expression (IHC), dose dependence / MBP/O4 ratio, dose dependence: Roflumilast 5, 10 μM, Gebr32a 0.5, 1, 5 μM, BPN14770 0.1-10 μM, day 6
Description: (§1) FIG. 3: Inhibition of PDE4 by roflumilast induces differentiation of primary mouse oligodendrocyte precursor cells. Primary mouse oligodendrocyte precursor cells (OPCs) were isolated from p0 C57bl6 pups using the shake off method at day 0. Primary OPCs (150.000 cells/condition) were cultured and stimulated with vehicle (0.1% DMSO) or the PDE4 inhibitor Roflumilast (5 μM, or 10 μM) in 0.1% DMSO. Treatment was repeated on day 2 and day 4, applying a 40% medium change. Cells were fixated at day 6 and stained for O4, a late OPC marker and MBP, an oligodendrocyte marker.
(§2) For western blot, primary OPCs (500.000 cells/condition) were cultured and stimulated with vehicle (0.1% DMSO) or the PDE4 inhibitor Roflumilast (5 μM) in 0.1% DMSO. Treatment was repeated on day 2 and day 4, applying a 40% medium change. […] IHC Data were analyzed using a non-parametric Kruskal-Wallis test with Dunn's multiple comparisons test was performed; p<0.05=*; n=4/group. Western blot data were analyzed using a non-parametric Mann-Withney test; p<0.05; n=4/group.
as §1, with “4:” for “3:”, “PDE4D” for “PDE4”, “Gebr32a” for “roflumilast”, “Gebr32a (0.5” for “Roflumilast (5”, “μM, 1 μM” for “μM,”, “5” for “10”
as §2, with “PDE4D” for “PDE4”, “Gebr32a” for “Roflumilast”
FIG. 5: Inhibition of PDE4D by BPN14770 induces differentiation of primary mouse oligodendrocyte precursor cells. Primary mouse oligodendrocyte precursor cells (OPCs) were isolated from p0 C57bl6 pups using the shake off method at day 0. Primary OPCs (150.000 cells/condition) were cultured and stimulated with vehicle (PBS) or the PDE4D inhibitor BPN14770 (0.1 μM, 0.3 μM, 1 μM, 3 μM and 10 μM) in PBS. Treatment was repeated on day 2 and day 4, applying a 40% medium change. Cells were fixated at day 6 and stained for O4, a late OPC marker and MBP, an oligodendrocyte marker.
Mixed glial cultures were prepared from postnatal day 2 mouse cerebral cortices of C57BLl/6JOIaHsd animals and used to generate OPC-enriched glial cultures by separating the OPCs from the astrocyte monolayer by orbital shaking followed by purification by differential adhesion to plastic. Purified OPCs were seeded on poly-L-lysine (5 μg/ml; Sigma-Aldrich, Bornem, Belgium) coated plates or glass cover slides for staining. Isolated OPCs were plated in 24-well plates (150,000 cells/well Greiner Bio-One, Frickenhausen, Germany) for immunocytochemistry or in 6-well plates (500,000 cells/well Greiner Bio-One, Frickenhausen, Germany) for western blot analyses. OPCs were induced to differentiate for 6 days with Roflumilast (5 μM and 10 μM), Gebr32 (0.5, 1 and 5 μM) or vehicle (DMSO) in SATO-medium supplemented with 2% horse serum (Sigma-Aldrich). Treatment was repeated on day 2 and 4, applying a 40% medium change. All plates were at 37° C. and 8.5% C02.
Western blot was used to assess the total MBP production by OPC treated with roflumilast or Gebr32a compare to the vehicle group. Equal amount of protein sample was separated by 10% sodium dodecyl sulfate polyacrylamide gel electrophorese and blotted onto a PVDF membrane (GE Healthcare, Buckinghamshore, UK). […]

Structure (SMILES)	Relative MBP protein expression (ratio MBP to β-actin), western blot (5 μM)	MBP protein expression (IHC), dose dependence	MBP/O4 ratio, dose dependence	Relative MBP protein expression, IHC (5 μM, fixated at day 6, compared to vehicle)
OC(CN1CCOCC1)Cn1ccc(-c2ccc(OC(F)F)c(OC3CCCC3)c2)n1 (stereo not shown) [Gebr32a]	three-fold increase	dose-dependent increase	dose-dependent increase	–
O=C(Nc1c(Cl)cncc1Cl)c1ccc(OC(F)F)c(OCC2CC2)c1 [roflumilast]	three-fold increased	increased dose-dependently	increased dose-dependently	three-fold increased

— patent US20210145838A1, “SELECTIVE PDE4D INHIBITORS AGAINST DEMYELINATING DISEASES” (Universiteit Hasselt, priority 2018, published 2021)
